Measurements taken from US8710233B2 (Gruenenthal GmbH, priority 2005, dated 2014).
pIC50, pKi: −log10 of the molar value. Like-named read-outs stand apart in the source and are kept apart here.

How the values were obtained:
[1] = tested on: formaldehyde induced nociceptive behaviour; assay: Formaldehyde test in mice, second (late) phase; assay type: in vivo, mouse; conditions: mouse, read-out: inhibition formaldehyde test (n = 10); for inhibition in vivo at 1 mg/kg: 1 mg/kg body weight po; for inhibition in vivo at 0.3 mg/kg: 0.3 mg/kg body weight po
[2] = biological target: T1, vanilloid receptor 1 (VR1/TRPV1) of the rat species (Rattus norvegicus, UniProt O35433); assay: FLIPR Ca2+ influx assay on rat dorsal root ganglia cells (pharmacological method I); assay type: cell-based; conditions: for pKi: table 4, capsaicin
T1 construct: The spinal column is removed from decapitated rats; from tissue; host or cells: primary cells dissociated from rat dorsal root ganglia
Summary of the method: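 Primary rat dorsal root ganglion cells loaded with 2 μM Fluo-4, Ca2+ influx read on FLIPR as peak fluorescence. Triplicates, at least 3 independent experiments.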

vanilloid receptor (VR1) = biological target: T2, vanilloid receptor (VR1) (Homo sapiens, UniProt Q8NER1); assay: FLIPR Ca2+ influx assay on CHO K1 cells transfected with the VR1 gene (pharmacological method II); assay type: cell-based; conditions: table 4; capsaicin; read-out: Ki (human) Cap.
T2 construct: expressed in transfected cells; host or cells: CHO K1 cells (ECACC), stably transfected

VR1/TRPV1 receptor = VR1/TRPV1 receptor (Homo sapiens, UniProt Q8NER1); assay: IC50 (human) after pH stimulus; assay type: cell-based; conditions: for pIC50: table 4
[3] = tested on: capsaicin induced hypothermie; assay: Hypothermie assay in the mouse (capsaicin induced hypothermie); assay type: in vivo; conditions: 0.3 mg/kg body weight po; mouse; read-out: inhibition hypothermie (n = 5)
Protocol: V. Hypothermie Assay an der Maus
Male NMRI mice (weight 25-35 gram, supplier IFFA CREDO, Bruxelles, Belgium) are used in the hypothermie assay. The animals are kept under standardized conditions: light/darkness interval (6:00 to 18:00 light; 18:00 to 6:00 Uhr darkness), room temperature 19-22° C., relative humidity 35-70%, 15 times per hour change of compartment air, airflow <0.2 m/sec. The animals were fed on a standardized diet (ssniff diet, ssniff Spezialdiäten GmbH, Soest, Germany) and tap water. Water and diet were detracted during the experiment. All animals were used once in the experiment. The animals were allowed to adapt to the experimental conditions for at least 5 days.
The acute application of capsaicin (VR-1 agonist) leads to a decrease of the core body temperature in rat and mice via stimulation of heat sensors. Only compounds which act as specific VR-1-receptor antagonists can antagonize the capsaicin induced hypothermie. In contrast, morphine induced hypothermie is not antagonized by VR-1 antagonists. Thus, this experiment is suitable for the determination of compounds that act as VR1-antagonists via their effect on the core body temperature.
For the determination of the core body temperature a digital thermometer was used (Thermalert TH-5, physitemp, Clifton N.J., USA). The measuring head was inserted into the rectum.
The individual basis value is determined by measuring the body temperature twice in an interval of about half an hour. […] […] The test compound is given 10 min (i.v.) or 15 min (p.o.), respectively, before application of capsaicin. The body temperature is determined 7.5/15 and 30 min after application of capsaicin (i.v.+i.p.) or 15/30/60/90/120 min after application of capsaicin (p.o.+i.p.), respectively. In addition, another group of mice is only given the test compound or a vehicle control.
The measuring points are given as average values±S.E.M. of the absolute values. The antagonistic effect is given in percent of inhibition of capsaicin induced hypothermie.

T1 sequence (O35433 whole entry): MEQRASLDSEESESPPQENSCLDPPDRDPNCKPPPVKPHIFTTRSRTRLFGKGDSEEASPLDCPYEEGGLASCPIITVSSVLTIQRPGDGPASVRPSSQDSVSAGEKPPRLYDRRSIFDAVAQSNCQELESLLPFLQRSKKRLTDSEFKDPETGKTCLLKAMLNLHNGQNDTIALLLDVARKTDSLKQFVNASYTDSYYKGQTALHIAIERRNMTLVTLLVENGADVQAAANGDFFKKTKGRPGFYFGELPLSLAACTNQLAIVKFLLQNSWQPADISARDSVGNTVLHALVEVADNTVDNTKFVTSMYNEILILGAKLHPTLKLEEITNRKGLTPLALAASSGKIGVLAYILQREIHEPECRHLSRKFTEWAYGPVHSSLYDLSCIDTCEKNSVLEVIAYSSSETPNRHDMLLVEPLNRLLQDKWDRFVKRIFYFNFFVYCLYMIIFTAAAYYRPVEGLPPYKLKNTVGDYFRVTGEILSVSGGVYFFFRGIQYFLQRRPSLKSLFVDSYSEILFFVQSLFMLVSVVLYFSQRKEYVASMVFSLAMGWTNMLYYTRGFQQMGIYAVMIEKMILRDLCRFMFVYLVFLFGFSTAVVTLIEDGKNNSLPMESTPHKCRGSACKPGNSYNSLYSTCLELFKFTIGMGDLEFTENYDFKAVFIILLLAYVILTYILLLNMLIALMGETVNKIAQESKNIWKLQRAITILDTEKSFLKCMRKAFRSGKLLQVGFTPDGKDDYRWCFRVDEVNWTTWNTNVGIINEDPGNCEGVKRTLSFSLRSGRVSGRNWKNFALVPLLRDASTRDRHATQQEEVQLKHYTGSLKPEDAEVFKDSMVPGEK
VR1/TRPV1 receptor, sequence (Q8NER1 whole entry): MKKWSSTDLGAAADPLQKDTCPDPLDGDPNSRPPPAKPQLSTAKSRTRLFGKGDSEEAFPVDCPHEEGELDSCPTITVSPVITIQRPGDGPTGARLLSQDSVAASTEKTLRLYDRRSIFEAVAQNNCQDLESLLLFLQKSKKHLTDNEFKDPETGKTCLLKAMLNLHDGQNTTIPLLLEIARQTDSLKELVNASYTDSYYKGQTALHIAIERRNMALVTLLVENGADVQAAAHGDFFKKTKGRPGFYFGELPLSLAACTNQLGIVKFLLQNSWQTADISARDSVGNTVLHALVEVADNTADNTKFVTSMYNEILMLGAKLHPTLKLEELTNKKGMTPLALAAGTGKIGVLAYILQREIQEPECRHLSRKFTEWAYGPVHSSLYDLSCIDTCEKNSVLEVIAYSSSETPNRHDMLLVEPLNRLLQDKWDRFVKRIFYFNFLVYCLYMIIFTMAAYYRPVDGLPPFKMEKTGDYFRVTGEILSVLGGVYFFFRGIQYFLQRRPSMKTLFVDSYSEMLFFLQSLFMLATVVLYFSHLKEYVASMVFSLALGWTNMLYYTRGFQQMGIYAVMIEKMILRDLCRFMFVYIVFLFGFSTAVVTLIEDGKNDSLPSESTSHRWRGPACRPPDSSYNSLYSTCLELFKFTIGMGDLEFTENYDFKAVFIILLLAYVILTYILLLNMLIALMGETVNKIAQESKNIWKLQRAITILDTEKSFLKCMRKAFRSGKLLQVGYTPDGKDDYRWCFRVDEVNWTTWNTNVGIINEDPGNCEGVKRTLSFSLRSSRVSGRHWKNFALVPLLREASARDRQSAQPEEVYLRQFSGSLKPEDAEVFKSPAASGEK
T2 sequence (Q8NER1 whole entry): as above

pKi (vanilloid receptor (VR1)) | pIC50 (VR1/TRPV1 receptor) | SMILES | inhibition in vivo at 1 mg/kg [1] [%] | inhibition in vivo at 0.3 mg/kg [3] [%] | other results
– | – | CC(C(=O)NCc1ccc(C(F)(F)Cl)nc1OCc1ccccn1)c1ccc(NS(C)(=O)=O)c(F)c1 (centres unmarked) [Compound 182] | 8 | – | –
– | – | CC(C(=O)NCc1ccc(C(F)(F)F)nc1N1CCCC1)c1ccc(NS(C)(=O)=O)c(Br)c1 (centres unmarked) [Compound 103] | 50 | – | –
– | – | CC(C(=O)NCc1ccc(C(F)(F)F)nc1OCCc1ccccc1)c1ccc(NS(C)(=O)=O)c(F)c1 (centres unmarked) [Compound 178] | 28 | – | –
– | – | CC(C(=O)NCc1ccc(C(F)(F)F)nc1NC1CCCCC1)c1ccc(NS(C)(=O)=O)c(F)c1 (centres unmarked) [Compound 90] | 37 | – | –
– | – | COC1CCN(c2nc(C(F)(F)F)ccc2CNC(=O)C(C)c2ccc(NS(C)(=O)=O)c(F)c2)CC1 (centres unmarked) [Compound 159] | 14 | – | –
– | – | CC(C(=S)NCc1ccc(C(F)(F)F)nc1N1CCCC1)c1ccc(NS(C)(=O)=O)c(F)c1 (centres unmarked) [Compound 129] | 3 | – | –
– | – | CC(C(=O)NCc1ccc(C(F)(F)F)nc1-c1cccs1)c1ccc(NS(C)(=O)=O)c(F)c1 (centres unmarked) [Compound 88] | 16 | – | –
– | – | CC(C(=O)NCc1ccc(C(F)(F)F)nc1SC1CCCCC1)c1ccc(NS(C)(=O)=O)c(F)c1 (centres unmarked) [Compound 126] | – | – | inhibition in vivo at 0.3 mg/kg [1]: 69%
– | – | CCC1CCC(Oc2nc(C(F)(F)F)ccc2CNC(=O)C(C)c2ccc(NS(C)(=O)=O)c(F)c2)CC1 (centres unmarked) [Compound 171] | 46 | – | –
8.30 | 6.72 | CC(C(=O)NCc1ccc(C(F)(F)F)nc1N1Cc2ccccc2C1)c1ccc(NS(C)(=O)=O)c(F)c1 (centres unmarked) [Example 188, N-[2-(1,3-dihydro-isoindol-2-yl)-6-trifluoromethyl-pyridin-3-ylmethyl]-2-(3-fluoro-4-methylsulfonamido-phenyl)-propionamide] | – | 0 | pKi ([2]; read-out: Ki (rat) Cap.): 8.30
– | – | CC(C(=O)NCc1ccc(C(F)(F)F)nc1-c1ccc(C(C)(C)C)cc1)c1ccc(NS(C)(=O)=O)c(F)c1 (centres unmarked) [Compound 117] | 41 | – | –
– | – | CC(C(=O)NCc1ccc(C(F)(F)F)cc1N1CCCC1)c1ccc(NS(C)(=O)=O)c(F)c1 (centres unmarked) [Compound 34] | – | – | inhibition in vivo at 0.3 mg/kg [1]: 51%
8.09 | 6.27 | CC(C(=O)NCc1ccc(C(C)(C)C)cc1OC1CCCCC1)c1ccc(NS(C)(=O)=O)c(F)c1 (centres unmarked) [Example 154, N-(4-tert-butyl-2-cyclohexyloxy-benzyl)-2-(3-fluoro-4-methylsulfonamido-phenyl)-propionamide] | – | 12 | pKi ([2]; read-out: Ki (rat) Cap.): 8.77
– | – | Cc1cc(C(C)C(=O)NCc2ccc(C(F)(F)F)nc2N2CCCCC2)ccc1NS(C)(=O)=O (centres unmarked) [Compound 127] | 25 | – | –
8.39 | – | CC(C(=O)NCc1ccc(C(F)(F)F)nc1N1CCN(c2ncccc2Cl)CC1C)c1ccc(NS(C)(=O)=O)c(F)c1 (centres unmarked) [Example 194, N-{2-[4-(3-chloro-pyridin-2-yl)-2-methyl-piperazin-1-yl]-6-trifluoromethyl-pyridin-3-ylmethyl}-2-(3-fluoro-4-methylsulfonamido-phenyl)-propionamide] | – | 14 | pKi ([2]; read-out: Ki (rat) Cap.): 8.42; inhibition at 1 µM (VR1/TRPV1 receptor; @ 1 μM, ne = no effect, read-out: inhibition in percent, IC50 (human) after pH stimulus): 21%
8.77 | 6.87 | C[C@@H](C(=O)NCc1ccc(C(F)(F)F)cc1N1CCCCC1)c1ccc(NS(C)(=O)=O)c(F)c1 [Example 32, (R)-2-(3-fluoro-4-(methylsulfonamido)phenyl)-N-(2-(piperidin-1-yl)-4-(trifluoromethyl)benzyl)propanamide] | – | 55 | pKi ([2]; read-out: Ki (rat) Cap.): 8.59

pKi (vanilloid receptor (VR1)) | pIC50 (VR1/TRPV1 receptor) | SMILES | inhibition in vivo at 1 mg/kg [1] [%] | inhibition in vivo at 0.3 mg/kg [3] [%] | other results
– | – | CC(C(=O)NCc1ccc(C(F)(F)F)nc1OCc1ccncc1)c1ccc(NS(C)(=O)=O)c(F)c1 (centres unmarked) [Compound 177] | 24 | – | inhibition at 0.1 µM ([2]; read-out: inhibition in percent, Ki (rat) Cap.): 9%
– | – | CC(C(=O)NCc1ccc(C(F)(F)F)nc1-c1cccc(F)c1)c1ccc(NS(C)(=O)=O)c(F)c1 (centres unmarked) [Compound 148] | 46 | – | –
– | – | CC(C(=S)NCc1ccc(C(F)(F)F)nc1-c1ccc(F)cc1)c1ccc(NS(C)(=O)=O)c(F)c1 (centres unmarked) [Compound 130] | 55 | – | –
8.70 | 7.19 | CC(C(=O)NCc1ccc(C(F)(F)F)cc1N1CCN(c2ccccc2)CC1)c1ccc(NS(C)(=O)=O)c(F)c1 (centres unmarked) [Example 216] | – | 4 | pKi ([2]; read-out: Ki (rat) Cap.): 9.30
9.10 | 7.36 | COc1cccc(COc2nc(C(F)(F)F)ccc2CNC(=O)C(C)c2ccc(NS(C)(=O)=O)c(F)c2)c1 (centres unmarked) [Example 107, 2-(3-fluoro-4-methylsulfonamido-phenyl)-N-[2-(3-methoxy-benzyloxy)-6-trifluoromethyl-pyridin-3-ylmethyl]-propionamide] | – | 21 | pKi ([2]; Ki (rat) Cap.): 9.00
9.70 | 7.83 | CCCN(CCC)c1nc(C(F)(F)F)ccc1CNC(=O)C(C)c1ccc(NS(C)(=O)=O)c(F)c1 (centres unmarked) [Example 16, N-((2-(dipropylamino)-6-(trifluoromethyl)pyridin-3-yl)methyl)-2-(3-fluoro-4-(methylsulfonamido)phenyl)propanamide] | – | 12 | pKi ([2]; read-out: Ki (rat) Cap.): 9.10
– | – | CC(C(=O)NCc1ccc(C(F)(F)F)cc1N1CCCCCC1)c1ccc(NS(C)(=O)=O)c(F)c1 (centres unmarked) [Compound 174] | 49 | – | –
8.96 | 6.94 | CC(C(=O)NCc1ccc(C(F)(F)F)nc1OCC1CC1)c1ccc(NS(C)(=O)=O)c(F)c1 (centres unmarked) [Example 100, N-(2-cyclopropylmethoxy-6-trifluoromethyl-pyridin-3-ylmethyl)-2-(3-fluoro-4-methylsulfonamido-phenyl)-propionamide] | – | 26 | pKi ([2]; Ki (rat) Cap.): 8.92
– | – | CCCCOC1CCN(c2nc(C(F)(F)F)ccc2CNC(=O)C(C)c2ccc(NS(C)(=O)=O)c(F)c2)CC1 (centres unmarked) [Compound 160] | 14 | – | –
– | – | CCCCOc1cc(C(C)(C)C)ccc1CNC(=O)C(C)c1ccc(NS(C)(=O)=O)c(F)c1 (centres unmarked) [Compound 108] | 24 | – | –
9.52 | 8.23 | CC1CCN(c2nc(C(F)(F)Cl)ccc2CNC(=O)C(C)c2ccc(NS(C)(=O)=O)c(F)c2)CC1 (centres unmarked) [Example 131] | – | 26 | pKi ([2]; read-out: Ki (rat) Cap.): 9.40
9.52 | 7.92 | CC(C(=O)NCc1ccc(C(F)(F)F)nc1N1CC=CCC1)c1ccc(NS(C)(=O)=O)c(F)c1 (centres unmarked) [Example 139, 2-(3-fluoro-4-methylsulfonamido-phenyl)-N-(6′-trifluoromethyl-3,6-dihydro-2H-[1,2′]bipyridinyl-3′-ylmethyl)-propionamide] | – | 43 | pKi ([2]; read-out: Ki (rat) Cap.): 9.05
– | – | CCCCN(C)c1nc(C(F)(F)F)ccc1CNC(=O)C(C)c1ccc(NS(C)(=O)=O)c(F)c1 (centres unmarked) [Compound 167] | – | – | inhibition in vivo at 0.3 mg/kg [1]: 56%
– | – | CC(C(=O)NCc1ccc(C(F)(F)F)nc1N1CCN(c2ccc(F)cc2)CC1)c1ccc(NS(C)(=O)=O)c(F)c1 (centres unmarked) [Compound 179] | 22 | – | –
– | – | CC(C(=O)NCc1ccc(C(F)(F)Cl)nc1OC1CCCC1)c1ccc(NS(C)(=O)=O)c(F)c1 (centres unmarked) [Compound 166] | 72 | – | –

SMILES | pKi (vanilloid receptor (VR1)) | pIC50 (VR1/TRPV1 receptor) | inhibition in vivo at 1 mg/kg [1] [%] | inhibition in vivo at 0.3 mg/kg [3] [%] | other results
CC(C)CCOc1nc(C(F)(F)F)ccc1CNC(=O)C(C)c1ccc(NS(C)(=O)=O)c(F)c1 (centres unmarked) [Example 123, 2-(3-fluoro-4-methylsulfonamido-phenyl)-N-[2-(3-methyl-butoxy)-6-trifluoromethyl-pyridin-3-ylmethyl]-propionamide] | 9.10 | 7.82 | – | 47 | pKi ([2]; read-out: Ki (rat) Cap.): 9.22
CC(C(=O)NCc1ccc(C(F)(F)F)nc1-c1ccc(F)cc1)c1ccc(NS(C)(=O)=O)c(F)c1 (centres unmarked) [Example 89] | 9.40 | 6.88 | – | 1 | pKi ([2]; read-out: Ki (rat) Cap.): 8.92
CCCCCCOc1nc(C(F)(F)F)ccc1CNC(=O)[C@@H](C)c1ccc(NS(C)(=O)=O)c(F)c1 [Example 93, (S)-2-(3-fluoro-4-methylsulfonamido-phenyl)-N-(2-hexyloxy-6-trifluoromethyl-pyridin-3-ylmethyl)-propionamide] | 9.40 | 7.91 | – | 4 | pKi ([2]; Ki (rat) Cap.): 9.70
